The target in one assay is hNET (Homo sapiens, UniProt P23975). Kind of assay: hNET membrane radioligand binding assay (3H-nisoxetine), Assay 1.
The target of the next assay is hSERT (Homo sapiens, UniProt P31645). Kind of assay: hSERT membrane radioligand binding assay (3H-citalopram), Assay 1. The note with it: SERT pKi, hSERT HEK-293 membranes, 1.0 nM 3H-citalopram; values given as lower bounds.

The structures appear in SMILES notation.

Ki data for 40 compounds are collected here from patent US7994209B2, “3-phenoxymethylpyrrolidine compounds” (Theravance, Inc., priority 2009, dated 2011).

One may read the Ki as a measure of affinity in units of concentration, obtained from inhibition or displacement. A lower Ki goes with higher affinity.

Sequence of hNET (P23975 whole entry): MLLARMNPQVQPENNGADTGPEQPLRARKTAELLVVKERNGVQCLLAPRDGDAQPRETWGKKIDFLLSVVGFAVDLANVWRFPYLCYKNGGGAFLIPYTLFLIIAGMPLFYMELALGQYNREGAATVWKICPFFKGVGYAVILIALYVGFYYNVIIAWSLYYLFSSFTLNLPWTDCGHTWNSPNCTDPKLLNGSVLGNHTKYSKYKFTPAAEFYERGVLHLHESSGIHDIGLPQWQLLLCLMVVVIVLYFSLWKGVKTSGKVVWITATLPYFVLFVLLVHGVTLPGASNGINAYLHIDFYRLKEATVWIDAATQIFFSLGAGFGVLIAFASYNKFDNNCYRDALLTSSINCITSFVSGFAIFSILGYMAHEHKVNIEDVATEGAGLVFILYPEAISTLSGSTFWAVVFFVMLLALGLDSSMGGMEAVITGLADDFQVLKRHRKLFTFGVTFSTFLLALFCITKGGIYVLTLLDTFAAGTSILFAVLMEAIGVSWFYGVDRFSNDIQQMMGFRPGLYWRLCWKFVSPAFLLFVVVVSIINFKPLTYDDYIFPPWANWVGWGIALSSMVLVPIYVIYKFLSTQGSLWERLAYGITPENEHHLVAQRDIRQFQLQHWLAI
Sequence of hSERT (P31645 whole entry): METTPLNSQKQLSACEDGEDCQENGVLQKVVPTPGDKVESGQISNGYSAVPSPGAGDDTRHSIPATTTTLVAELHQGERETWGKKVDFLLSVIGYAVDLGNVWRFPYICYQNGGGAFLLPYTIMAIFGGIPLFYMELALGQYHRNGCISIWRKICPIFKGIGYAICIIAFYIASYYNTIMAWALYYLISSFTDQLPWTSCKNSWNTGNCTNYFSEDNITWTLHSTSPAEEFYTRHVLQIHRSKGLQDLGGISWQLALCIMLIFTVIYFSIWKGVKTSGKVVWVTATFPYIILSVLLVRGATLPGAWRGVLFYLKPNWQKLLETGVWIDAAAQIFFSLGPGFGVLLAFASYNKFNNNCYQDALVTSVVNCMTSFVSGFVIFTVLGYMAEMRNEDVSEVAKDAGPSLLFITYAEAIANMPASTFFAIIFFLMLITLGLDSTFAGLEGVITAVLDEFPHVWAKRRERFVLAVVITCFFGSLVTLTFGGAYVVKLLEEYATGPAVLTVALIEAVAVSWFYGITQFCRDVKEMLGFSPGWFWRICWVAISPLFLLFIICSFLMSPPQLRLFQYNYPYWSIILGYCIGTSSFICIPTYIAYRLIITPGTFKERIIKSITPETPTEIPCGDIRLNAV

For the compound `Cc1cc(Cl)ccc1O[C@@H](C1CC1)[C@@H]1CCNC1` [Example 16-31, (R)-3-[(S)-(4-Chloro-2-methylphenoxy)cyclopropylmethyl]pyrrolidine], the Ki at hNET is at most 0.1 µM; at hSERT, at most 0.01 µM.

Regarding `Cc1ccc(O[C@H](C2CC2)[C@@H]2CCNC2)c(Cl)c1` [Example 16-24, (R)-3-[(R)-(2-Chloro-4-methylphenoxy)cyclopropylmethyl]pyrrolidine], the inhibitory constant (Ki) is at most 0.1 µM on hNET and at most 0.01 µM on hSERT.

In the case of `CC[C@H](Oc1ccc(C(F)(F)F)cc1)[C@H]1CCNC1` [Example 2-17, (S)-3-[(S)-1-(4-Trifluoromethylphenoxy)propyl]pyrrolidine], the Ki at hNET was at most 0.1 µM; at hSERT, at most 0.01 µM.

As for `O=[N+]([O-])c1ccccc1O[C@H](C1CCCCC1)[C@H]1CCNC1` [Example 20-3, (S)-3-[(R)-Cyclohexyl-(2-nitrophenoxy)methyl]pyrrolidine], the inhibition constant (Ki) at hNET is at most 0.01 µM; on hSERT, at most 0.1 µM.

With `Cc1ccc(Cl)c(O[C@@H](C2CC2)[C@H]2CCNC2)c1F` [Example 16-68, (S)-3-[(S)-(6-Chloro-2-fluoro-3-methylphenoxy)cyclopropylmethyl]pyrrolidine], the Ki on hNET was at most 0.01 µM; at hSERT, at most 0.1 µM.

With `CCCC[C@@H](Oc1ccc(Cl)cc1Cl)[C@H]1CCNC1` [Example 8-8, (S)-3-[(R)-1-(2,4-Dichlorophenoxy)pentyl]pyrrolidine], the Ki at hNET and on hSERT was at most 0.01 µM in each case.

Take `CC(C)C(Oc1cccc(F)c1)C1CCNC1` (centres unmarked) [Example 6-55, 3-[1-(3-Fluorophenoxy)-2-methylpropyl]pyrrolidine]: the Ki at hNET and at hSERT was at most 0.1 µM each time.

As to `Cc1ccc(Cl)c(O[C@H](C2CC2)[C@H]2CCNC2)c1F` [Example 16-69, (S)-3-[(R)-(6-Chloro-2-fluoro-3-methylphenoxy)cyclopropylmethyl]pyrrolidine], the Ki is at most 0.01 µM on hNET and at most 0.1 µM at hSERT.

As for `CCC[C@@H](Oc1cccc(Cl)c1C(F)(F)F)[C@H]1CCNC1` [Example 4-69, (S)-3-[(R)-1-(3-Chloro-2-trifluoromethylphenoxy)butyl]pyrrolidine], the Ki was at most 0.1 µM on hNET and at most 0.01 µM on hSERT.

For the compound `CCC[C@H](Oc1ccc(Cl)cc1C(F)(F)F)[C@@H]1CCNC1` [Example 4-66, (R)-3-[(S)-1-(4-Chloro-2-trifluoromethylphenoxy)butyl]pyrrolidine], the Ki is at most 0.1 µM on hNET and at most 0.01 µM at hSERT.

Regarding `Clc1ccc(O[C@H](C2CC2)[C@H]2CCNC2)c(Cl)c1` [Example 16-20, (S)-3-[(R)cyclopropyl-(2,4-dichlorophenoxy)methyl]pyrrolidine], the Ki is at most 0.1 µM on hNET and at most 0.01 µM on hSERT.

As to `CCC[C@H](Oc1cccc(Cl)c1C)[C@@H]1CCNC1` [Example 4-56, (R)-3-[(S)-1-(3-Chloro-2-methylphenoxy)butyl]pyrrolidine], the inhibitory constant (Ki) was at most 0.1 µM on hNET and at most 0.01 µM at hSERT.

`CCC[C@H](Oc1cccc(Cl)c1C(F)(F)F)[C@H]1CCNC1` [Example 4-68, (S)-3-[(S)-1-(3-Chloro-2-trifluoromethylphenoxy)butyl]pyrrolidine]: the Ki on hNET and at hSERT was at most 0.01 µM each time.

With `Cc1ccc(O[C@H](C2CC2)[C@@H]2CCNC2)c(C)c1` [Example 16-27, (R)-3-[(R)cyclopropyl-(2,4-dimethylphenoxy)-methyl]pyrrolidine], the inhibitory constant (Ki) on hNET is at most 0.1 µM; at hSERT it was at most 0.01 µM.

Consider `CC[C@H](Oc1cccc(Cl)c1C(F)(F)F)[C@@H]1CCNC1` [Example 2-73, (R)-3-[(S)-1-(3-Chloro-2-trifluoromethylphenoxy)propyl]pyrrolidine], for which the inhibitory constant (Ki) is at most 0.1 µM on hNET and at most 0.01 µM on hSERT.

Turning to `Fc1cccc(O[C@H](C2CCCCC2)[C@H]2CCNC2)c1` [Example 20-7, (S)-3-[(R)-Cyclohexyl-(3-fluorophenoxy)methyl]pyrrolidine], the figures for the Ki at hNET and on hSERT were at most 0.01 µM and at most 0.1 µM, respectively.

On to `Cc1cc(Cl)ccc1O[C@H](C(C)C)[C@H]1CCNC1` [Example 6-44, (S)-3-[(R)-1-(4-Chloro-2-methylphenoxy)-2-methylpropyl]pyrrolidine], for which the Ki on hNET is at most 0.1 µM; at hSERT, at most 0.01 µM.

For `CC(=O)c1ccccc1O[C@@H](C1CCCCC1)[C@@H]1CCNC1` [Example 20-4, 1-[2-((R)-Cyclohexyl-(S)-pyrrolidin-3-yl-methoxy)phenyl]ethanone], the Ki on hNET is at most 0.01 µM; at hSERT, at most 0.1 µM.

Take `Cc1cc(Cl)cc(C)c1O[C@@H](C1CC1)[C@H]1CCNC1` [Example 16-82, (S)-3-[(S)-(4-Chloro-2,6-dimethylphenoxy)cyclopropylmethyl]pyrrolidine]: the Ki on hNET was at most 0.1 µM; on hSERT it was at most 0.01 µM.

Consider `CCCC[C@@H](Oc1ccc(Cl)cc1C(F)(F)F)[C@H]1CCNC1` [Example 8-11, (S)-3-[(R)-1-(4-Chloro-2-trifluoromethylphenoxy)pentyl]pyrrolidine], for which the inhibitory constant (Ki) at hNET and on hSERT was at most 0.01 µM throughout.

For the compound `Clc1cccc(O[C@@H](C2CC2)[C@@H]2CCNC2)c1Cl` [Example 16-6, (R)-3-[(S)cyclopropyl-(2,3-dichlorophenoxy)methyl]pyrrolidine], the Ki at hNET was at most 0.1 µM; at hSERT it was at most 0.01 µM.

As to `CC(C)[C@H](Oc1ccccc1[N+](=O)[O-])[C@H]1CCNC1` [Example 6-53, (S)-3-[(S)-2-Methyl-1-(2-nitrophenoxy)propyl]pyrrolidine], the Ki was at most 0.01 µM at hNET and at most 0.1 µM at hSERT.

Consider `Cc1cc(Cl)ccc1O[C@H](C1CC1)[C@@H]1CCNC1` [Example 16-32, (R)-3-[(R)-(4-Chloro-2-methylphenoxy)cyclopropylmethyl]pyrrolidine], for which the values for the inhibition constant Ki at hNET and on hSERT were at most 0.1 µM and at most 0.01 µM, respectively.

On to `CSc1ccccc1O[C@H](C1CC1)[C@H]1CCNC1` [Example 16-4, (S)-3-[(R)cyclopropyl-(2-methylsulfanylphenoxy)methyl]pyrrolidine], for which the inhibition constant Ki on hNET is at most 0.01 µM; at hSERT, at most 0.1 µM.

For `CC(=O)c1c(F)cccc1O[C@@H](CC(C)C)[C@H]1CCNC1` [Example 10-38, 1-[2-Fluoro-6-((S)-3-methyl-1-(S)-pyrrolidin-3-yl-butoxy)phenyl]ethanone], the Ki was at most 0.01 µM at hNET and at most 0.1 µM at hSERT.

Regarding `CCC[C@H](Oc1c(Cl)cccc1Cl)[C@@H]1CCNC1` [Example 4-35, (R)-3-[(S)-1-(2,6-Dichlorophenoxy)butyl]pyrrolidine], the inhibition constant (Ki) on hNET and on hSERT was at most 0.1 µM each time.

`CCCC[C@@H](Oc1ccc(C(F)(F)F)cc1)[C@H]1CCNC1` [Example 8-5, (S)-3-[(R)-1-(4-Trifluoromethylphenoxy)pentyl]pyrrolidine]: the inhibitory constant (Ki) was at most 0.1 µM on hNET and at most 0.01 µM at hSERT.

In the case of `FC(F)(F)c1cc(Cl)ccc1O[C@H](C1CC1)[C@@H]1CCNC1` [Example 16-36, (R)-3-[(R)-(4-Chloro-2-trifluoromethylphenoxy)cyclopropylmethyl]pyrrolidine], the Ki on hNET and on hSERT was at most 0.1 µM in each case.

In the case of `CC(C)C(Oc1ccccc1F)C1CCNC1` (centres unmarked) [Example 6-2, 3-[1-(2-Fluorophenoxy)-2-methylpropyl]pyrrolidine], the Ki on hNET and on hSERT was at most 0.1 µM each time.

On to `C=CC[C@@H](Oc1ccc(Cl)cc1C)[C@H]1CCNC1` [Example 25-2, (S)-3-[(R)-1-(4-Chloro-2-methylphenoxy)but-3-enyl]pyrrolidine], for which the inhibitory constant (Ki) is at most 0.1 µM on hNET and at most 0.01 µM at hSERT.

For `CC(C)C[C@@H](Oc1ccc(C(F)(F)F)cc1)[C@H]1CCNC1` [Example 10-17, (S)-3-[(R)-3-Methyl-1-(4-trifluoromethylphenoxy)butyl]pyrrolidine], the results for the Ki at hNET and at hSERT were at most 0.1 µM and at most 0.01 µM, respectively.

Regarding `CC(C)C(Oc1cc(Cl)cc(Cl)c1)C1CCNC1` (centres unmarked) [Example 6-67, 3-[1(3,5-Dichlorophenoxy)-2-methylpropyl]pyrrolidine], the Ki at hNET was at most 0.1 µM; at hSERT, at most 0.01 µM.

With `Fc1cc(Cl)cc(Cl)c1O[C@@H](C1CC1)[C@H]1CCNC1` [Example 16-75, (S)-3-[(S)cyclopropyl-(2,4-dichloro-6-fluorophenoxy)methyl]pyrrolidine], the Ki at hNET and on hSERT was at most 0.01 µM in each case.

Consider `Cc1cc(Cl)ccc1O[C@@H](CC(C)C)[C@@H]1CCNC1` [Example 10-46, (R)-3-[(S)-1-(4-Chloro-2-methylphenoxy)-3-methylbutyl]pyrrolidine], for which the inhibitory constant (Ki) on hNET is at most 0.1 µM; at hSERT it was at most 0.01 µM.

Consider `CCC[C@H](Oc1ccccc1Cl)[C@@H]1CCNC1` [Example 4-21, (R)-3-[(S)-1-(2-Chlorophenoxy)butyl]pyrrolidine], for which the inhibition constant (Ki) at hNET and on hSERT was at most 0.1 µM in each case.

Regarding `CCC[C@@H](Oc1ccc(Cl)cc1Cl)[C@H]1CCNC1` [Example 4-29, (S)-3-[(R)-1-(2,4-Dichlorophenoxy)butyl]pyrrolidine], the inhibition constant Ki is at most 0.1 µM at hNET and at most 0.01 µM on hSERT.

In the case of `COc1cc(F)ccc1O[C@@H](C1CC1)[C@H]1CCNC1` [Example 16-40, (S)-3-[(S)cyclopropyl-(4-fluoro-2-methoxyphenoxy)methyl]pyrrolidine], the inhibition constant Ki on hNET is at most 0.01 µM; on hSERT it was at most 0.1 µM.

As for `CCC[C@H](Oc1ccc(Cl)cc1)[C@@H]1CCNC1` [Example 4-3, (R)-3-[(S)-1-(4-Chlorophenoxy)butyl]pyrrolidine], the Ki on hNET was at most 0.1 µM; at hSERT, at most 0.01 µM.

On to `Clc1ccc(O[C@H](C2CC2)[C@H]2CCNC2)cc1` [Example 16-102, (S)-3-[(R)-(4-Chlorophenoxy)cyclopropylmethyl]pyrrolidine], for which the Ki at hNET is at most 0.1 µM; at hSERT, at most 0.01 µM.

As to `CCC[C@H](Oc1cccc(Cl)c1C(F)(F)F)[C@@H]1CCNC1` [Example 4-70, (R)-3-[(S)-1-(3-Chloro-2-trifluoromethylphenoxy)butyl]pyrrolidine], the figures for the inhibitory constant (Ki) at hNET and on hSERT were at most 0.1 µM and at most 0.01 µM, respectively.
